From patent publication US20080045514A1 (Cytovia, Inc., priority 2006, published 2008)
Where a name gives a salt, the structure may show the parent alone.

How the values were obtained:
Type in all cases: cell-based
[1] = system: human breast cancer cell line T-47D; experiment: Caspase cascade activation (EC50), T-47D; conditions: Homo sapiens; T47D cells; caspase cascade activation; read-out: caspase potency (EC50) T47D
Procedure, shortened: (§1)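 48 h compound exposure (0.016–10 μM final) at 37 °C, 5% CO2; then DEVD-R110 substrate in lysolecithin/DTT/PIPES pH 7.2 buffer, 3 h RT. Fluorescence ex485/em530; net RFU = T=3 h minus control T=0; ratio to control; sigmoidal fit → EC50 (nM).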

[2] = system: human hepatocellular carcinoma cell line SNU398; experiment: Caspase cascade activation (EC50), SNU398; conditions: Homo sapiens, SNU-398; SNU398 cells; caspase cascade activation; read-out: caspase potency (EC50) SNU398
Procedure, shortened: as §1

[3] = system: human colon carcinoma cell line HCT116; experiment: Caspase cascade activation (EC50), HCT116; conditions: Homo sapiens, HCT-116; HCT116 cells; caspase cascade activation; read-out: caspase potency (EC50) HCT116
Procedure, shortened: as §1

[4] = system: human Burkitt's lymphoma cell line Namalwa; experiment: Caspase cascade activation (EC50), Namalwa; conditions: Homo sapiens, Burkitts lymphoma cell; Namalwa cells; caspase cascade activation; read-out: caspase potency (EC50) Namalwa
Procedure, shortened: as §1

[5] = system: human lymphoma cell line Raji; experiment: Caspase cascade activation (EC50), Raji; conditions: Homo sapiens, RAJI cells, read-out: caspase potency (EC50) RAJI
Procedure, shortened: as §1

[6] = system: human B cell lymphoblastoid cell line Ramos; experiment: Caspase cascade activation (EC50), Ramos; conditions: Homo sapiens, RAMOS cells, read-out: caspase potency (EC50) RAMOS
Procedure, shortened: as §1

[7] = system: human breast cancer cell line T-47D; experiment: Inhibition of cell proliferation (GI50), T47D; conditions: Homo sapiens; T47D cells, 48 h, CellTiter-Glo
Procedure: (§2) Human breast cancer cell lines T-47D, human hepatocellular carcinoma cell line SNU398, human colon carcinoma cell line HCT116, human lung cancer cell line H1299, human leukemia cell line K562, human lymphoma cell line Raji, human B cell lymphoblastoid cell line Ramos, and human Burkitt's lymphoma cell line Namalwa were grown and harvested as in Example 100. An aliquot of […] of cells (4.4×10^4 cells/mL) was added to a well of a 96-well microtiter plate containing 5 μL of a 10% DMSO in RPMI-1640 media solution containing 10 nM to 100 μM of 3-(2-chlorophenyl)-6-(3,4-methylenedioxyphenyl)-7H-[1,2,4]triazolo[3,4-b][1,3,4]thiadiazine (1 nM to 10 μM final). An aliquot of 45 μL of cells was added to a well of a 96-well microtiter plate containing 5 μL of a 10% DMSO in RPMI-1640 media solution without compound as the control sample for maximal cell proliferation (LMax). The samples were mixed by agitation and then incubated at 37° C. for 48 h in a 5% CO2-95% humidity incubator. After incubation, the samples were removed from the incubator and 25 μL of CellTiter-Glo™ reagent (Promega) was added. The samples were mixed by agitation and incubated at room temperature for 10-15 min. Plates were then read using a luminescent plate reader (Model SPECTRAfluor Plus, Tecan) to give Ltest values.
(§3) The samples were mixed by agitation and then incubated at 37° C. for 0.5 h in a 5% CO2-95% humidity incubator. After incubation, the samples were removed from the incubator and 25 μL of CellTiter-Glo™ reagent (Promega) was added. The samples were mixed by agitation and incubated at […] 10-15 min at room temperature in a 5% CO2-95% humidity incubator. Fluorescence was read as above, (LStart) defining luminescence for initial cell number used as baseline in GI50 determinations.
(§4) Calculation: GI50 (dose for 50% inhibition of cell proliferation) is the concentration where [(Ltest−LStart)/(LMax−LStart)]=0.5.

[8] = system: human hepatocellular carcinoma cell line SNU398; experiment: Inhibition of cell proliferation (GI50), SNU398; conditions: Homo sapiens; SNU 398 cells, 48 h, CellTiter-Glo
Procedure: as §2, §3, §4

[9] = system: human colon carcinoma cell line HCT116; experiment: Inhibition of cell proliferation (GI50), HCT116; conditions: Homo sapiens; HCT 116 cells, 48 h, CellTiter-Glo
Procedure, shortened: (§5)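 Growth inhibition is determined as the compound concentration halving proliferation relative to a time-zero (0.5 h) luminescence baseline and drug-free maximum. Cells (4.4×10^4 cells/mL) are treated 48 h at 37 °C over a 1 nM–10 μM final range, and ATP content is measured with CellTiter-Glo.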

[10] = system: human leukemia cell line K562; experiment: Inhibition of cell proliferation (GI50), K562; conditions: Homo sapiens; K562 cells, 48 h, CellTiter-Glo
Procedure, shortened: as §5

[11] = system: human lymphoma cell line Raji; experiment: Inhibition of cell proliferation (GI50), Raji; conditions: Homo sapiens; Raji cells, 48 h, CellTiter-Glo
Procedure, shortened: as §5

[12] = system: human B cell lymphoblastoid cell line Ramos; experiment: Inhibition of cell proliferation (GI50), Ramos; conditions: Homo sapiens; Ramos cells, 48 h, CellTiter-Glo
Procedure, shortened: as §5

[13] = system: human Burkitt's lymphoma cell line Namalwa; experiment: Inhibition of cell proliferation (GI50), Namalwa; conditions: Homo sapiens, Burkitts lymphoma cell; Namalwa cells, 48 h, CellTiter-Glo
Procedure, shortened: as §5

[14] = system: human cancer cell line H1299; experiment: Caspase cascade activation (EC50), H1299; conditions: NCI-H1299, H1299 cells, read-out: caspase potency (EC50) H1299
Procedure, shortened: as §1

[15] = system: human lung cancer cell line H1299; experiment: Inhibition of cell proliferation (GI50), H1299; conditions: NCI-H1299, H1299 cells, 48 h, CellTiter-Glo
Procedure: as §2, §3, §4

Row | EC50 [1] [nM] | EC50 [2] [nM] | EC50 [3] [nM] | EC50 [4] [nM] | EC50 [5] [nM] | EC50 [6] [nM] | GI50 [7] [nM] | GI50 [8] [nM] | GI50 [9] [nM] | GI50 [10] [nM] | GI50 [11] [nM] | GI50 [12] [nM] | GI50 [13] [nM] | EC50 [14] [nM] | GI50 [15] [nM] | Structure (SMILES)
1 | 146 | 25 | 60 | 31 | 57 | 30 | 17 | 150 | 15 | 43 | 27 | 16 | 66 |  |  | COc1ccccc1-c1nnc2n1N=C(c1ccc(C)cc1)CS2 [Example 8, 3-(2-Methoxyphenyl)-6-(4-methylphenyl)-7H-[1,2,4]triazolo[3,4-b][1,3,4]thiadiazine hydrochloride]
2 | 32 | 6 | 17 | 7 | 15 | 7 | 28 | 1 | 34 |  |  |  | 6 |  |  | COc1ccc(C2=Nn3c(nnc3-c3ccc(OC)cc3OC)SC2)cc1 [Example 18, 3-(2,4-Dimethoxyphenyl)-6-(4-methoxyphenyl)-7H-[1,2,4]triazolo[3,4-b][1,3,4]thiadiazine hydrochloride]
3 | 35 | 24 | 32 | 17 | 29 | 20 | 48 | 12 | 67 |  |  |  | 12 |  |  | CCOc1ccccc1-c1nnc2n1N=C(c1ccc(C)cc1)CS2 [Example 19, 3-(2-Ethoxyphenyl)-6-(4-methylphenyl)-7H-[1,2,4]triazolo[3,4-b][1,3,4]thiadiazine hydrobromide]
4 |  |  |  | 55 | 95 | 36 | 373 | 11 | 99 |  |  |  | 13 |  |  | COc1ccc(C2=Nn3c(nnc3-c3cc(OC)cc(OC)c3)SC2)cc1 [Example 20, 3-(3,5-Dimethoxyphenyl)-6-(4-methoxyphenyl)-7H-[1,2,4]triazolo[3,4-b][1,3,4]thiadiazine hydrobromide]
5 |  |  |  | 280 | 434 | 272 | 185 | 20 | 680 |  |  |  | 176 |  |  | CCN(CC)c1ccc(C2=Nn3c(nnc3-c3cc(OC)c(OC)c(OC)c3)SC2)cc1 [Example 21, 6-(4-Diethylaminophenyl)-3-(3,4,5-trimethoxyphenyl)-7H-[1,2,4]triazolo[3,4-b][1,3,4]thiadiazine hydrochloride]
6 | 93 | 54 | 72 | 62 |  |  | 34 | 23 | 109 |  |  |  | 55 |  |  | COc1ccccc1-c1nnc2n1N=C(c1ccc(N=[N+]=[N-])cc1)CS2 [Example 76, 6-(4-Azidophenyl)-3-(2-methoxyphenyl)-7H-[1,2,4]triazolo[3,4-b][1,3,4]thiadiazine]
7 | 18 | 14 | 11 | 7 |  |  | 5 | 2 | 12 |  |  |  | 5 |  |  | COc1ccccc1-c1nnc2n1N=C(c1ccc(N(C)C)cc1)CS2 [Example 77, 6-(4-dimethylaminophenyl)-3-(2-methoxyphenyl)-7H-[1,2,4]triazolo[3,4-b][1,3,4]thiadiazine]
8 | 188 | 117 | 204 | 115 |  |  | 297 | 115 | 300 |  |  |  | 170 |  |  | COc1ccccc1-c1nnc2n1N=C(c1ccc(NC(C)C)cc1)CS2 [Example 80, 6-(4-Isopropylaminophenyl)-3-(2-methoxyphenyl)-7H-[1,2,4]triazolo[3,4-b][1,3,4]thiadiazine]
9 | 270 | 39 | 67 | 55 |  |  | 255 | 21 | 79 |  |  |  | 18 |  |  | Cc1ccc(C2=Nn3c(nnc3-c3ccc(Cl)cc3C)SC2)cc1 [Example 81, 3-(4-Chloro-2-methylphenyl)-6-(4-methylphenyl)-7H-[1,2,4]triazolo[3,4-b][1,3,4]thiadiazine]
10 | 528 | 148 | 130 | 125 |  |  | 498 | 154 | 911 |  |  |  | 150 |  |  | CNc1ccccc1-c1nnc2n1N=C(c1ccc(C)cc1)CS2 [Example 84, 3-(2-Methylaminophenyl)-6-(4-methylphenyl)-7H-[1,2,4]triazolo[3,4-b][1,3,4]thiadiazine]
11 | 2220 | 1310 | 2480 | 556 | 570 | 586 | 2650 |  |  |  |  |  |  | 2420 | 1940 | COc1ccc(C2=Nn3c(nnc3-c3ccc(OC)c(OC)c3)SC2)cc1OC [Example N1, 3-(3,4-Dimethoxyphenyl)-6-(3,4-dimethoxyphenyl)-7H-[1,2,4]triazolo[3,4-b][1,3,4]thiadiazine]
12 | 284 | 52 | 55 | 32 |  |  | 34 | 13 | 40 |  |  |  | 64 |  |  | COc1ccc(C2=Nn3c(nnc3-c3ccc(Cl)cc3Cl)SC2)cc1 [Example N3]
13 | 345 | 243 | 471 | 261 | 221 | 262 | 375 |  |  |  |  |  |  | 1230 | 314 | Cc1cccc(-c2nnc3n2N=C(c2ccc4c(c2)OCO4)CS3)c1 [Example T, 3-(3-Methylphenyl)-6-(3,4-methylenedioxyphenyl)-7H-[1,2,4]triazolo[3,4-b][1,3,4]thiadiazine]
14 | 431 | 506 | 599 | 592 | 710 | 523 | 1500 | 294 | 5900 | 1870 | 3000 | 1290 | 2550 |  |  | c1cc2c(cc1C1=Nn3c(nnc3-c3n[nH]c4c3CCC4)SC1)OCO2 [Example W2]
15 | 513 | 273 | 849 | 265 | 393 | 481 | 97 |  |  |  |  |  |  | 1420 | 307 | Clc1ccc(-c2nnc3n2N=C(c2ccc4c(c2)OCO4)CS3)cc1 [G, 3-(4-Chlorophenyl)-6-(3,4-methylenedioxyphenyl)-7H-[1,2,4]triazolo[3,4-b][1,3,4]thiadiazine]
